Counter-ions that a name gives are not always drawn. Like-named read-outs stand apart in the source and are kept apart here.
How the values were obtained:
Recombinant JAK1 = target: T1, Recombinant JAK1 (Homo sapiens, UniProt P23458); experiment: JAK biochemical assay (LANCE Ultra TR-FRET), JAK1; settings: recombinant JAK1, TR-FRET; read-out: Biochemical Assay (μM) JAK1
T1 construct: purchased Carna Biosciences
Outline: (§1)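 Kinase reactions ran in buffer of 50 mM HEPES pH 7.5 with 1 mM EGTA, 10 mM MgCl2, 2 mM DTT and 0.01% Tween-20, using recombinant enzyme. Phosphorylated ULight substrate was detected by TR-FRET, and compound effect expressed as % inhibition against vehicle.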

Recombinant JAK2 = target: T2, Recombinant JAK2 (Homo sapiens, UniProt O60674); experiment: JAK biochemical assay (LANCE Ultra TR-FRET), JAK2; settings: recombinant JAK2, TR-FRET; read-out: Biochemical Assay (μM) JAK2
T2 construct: purchased Carna Biosciences
Outline: as §1

Recombinant JAK3 = target: T3, Recombinant JAK3 (Homo sapiens, UniProt P52333); experiment: JAK biochemical assay (LANCE Ultra TR-FRET), JAK3; settings: recombinant JAK3, TR-FRET; read-out: Biochemical Assay (μM) JAK3
T3 construct: purchased Carna Biosciences
T3 sequence (P52333 1-1124): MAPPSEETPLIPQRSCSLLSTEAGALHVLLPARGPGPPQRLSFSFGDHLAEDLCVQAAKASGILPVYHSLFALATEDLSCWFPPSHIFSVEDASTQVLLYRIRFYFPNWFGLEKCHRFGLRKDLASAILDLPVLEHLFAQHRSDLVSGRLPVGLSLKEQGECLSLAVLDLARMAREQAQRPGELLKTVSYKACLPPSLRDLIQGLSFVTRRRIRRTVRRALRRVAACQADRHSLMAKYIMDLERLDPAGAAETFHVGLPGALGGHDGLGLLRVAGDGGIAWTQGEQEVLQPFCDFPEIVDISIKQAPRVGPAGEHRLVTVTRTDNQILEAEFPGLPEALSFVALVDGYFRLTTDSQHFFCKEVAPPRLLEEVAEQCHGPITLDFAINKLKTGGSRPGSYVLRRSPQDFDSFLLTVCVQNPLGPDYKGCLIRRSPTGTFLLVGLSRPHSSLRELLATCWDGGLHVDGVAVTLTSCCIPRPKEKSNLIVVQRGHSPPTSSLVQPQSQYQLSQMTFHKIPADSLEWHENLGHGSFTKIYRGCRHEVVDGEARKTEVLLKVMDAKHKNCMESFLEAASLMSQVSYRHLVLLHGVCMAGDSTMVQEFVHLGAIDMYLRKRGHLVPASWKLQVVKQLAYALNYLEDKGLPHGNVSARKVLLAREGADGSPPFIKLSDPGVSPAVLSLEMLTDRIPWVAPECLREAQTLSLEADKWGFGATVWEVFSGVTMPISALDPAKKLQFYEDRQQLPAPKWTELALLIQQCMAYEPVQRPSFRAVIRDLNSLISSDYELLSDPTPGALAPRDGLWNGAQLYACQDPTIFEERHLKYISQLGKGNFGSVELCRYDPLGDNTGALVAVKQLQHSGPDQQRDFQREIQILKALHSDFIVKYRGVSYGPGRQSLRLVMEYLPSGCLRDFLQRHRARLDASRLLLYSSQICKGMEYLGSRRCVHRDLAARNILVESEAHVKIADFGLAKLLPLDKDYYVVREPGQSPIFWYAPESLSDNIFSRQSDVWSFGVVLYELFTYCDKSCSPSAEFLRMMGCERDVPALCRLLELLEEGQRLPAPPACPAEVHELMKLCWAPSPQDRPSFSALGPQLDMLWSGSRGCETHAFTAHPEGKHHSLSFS
Outline: as §1

Recombinant TYK2 = target: T4, Recombinant TYK2 (Homo sapiens, UniProt P29597); experiment: JAK biochemical assay (LANCE Ultra TR-FRET), TYK2; settings: recombinant TYK2, TR-FRET; read-out: Biochemical Assay (μM) TYK2
T4 construct: purchased Carna Biosciences
Outline: as §1

[1] = system: STAT3 phosphorylation by IL-6 in TF-1 cells; experiment: JAK cellular assay: STAT3 phosphorylation by IL-6 in TF-1 cells (HTRF); assay type: cell-based; settings: IL-6 30 ng/ml, pSTAT3 HTRF, read-out: Cell Based Assay (μM) TF-1/IL-6/pSTAT3
Outline: (§2)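 Phospho-STAT3 (IL-6, 30 ng/ml) and phospho-STAT5 (GMCSF, 5 ng/ml) read by HTRF in lysates after 20 min cytokine exposure, minus unstimulated-cell background. Cells were serum-starved overnight, plated at 120,000/well, given compound 30 min at 37 °C beforehand; DMSO 0.2% final.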

[2] = system: STAT5 phosphorylation by GMCSF in TF-1 cells; experiment: JAK cellular assay: STAT5 phosphorylation by GMCSF in TF-1 cells (HTRF); assay type: cell-based; settings: Homo sapiens; TF-1 cells, GMCSF 5 ng/ml, pSTAT5 HTRF; read-out: Cell Based Assay (μM) TF-1/GMCSF/pSTAT5
Outline: as §2

[3] = system: STAT5 phosphorylation by IL-2 in HT-2 cells; experiment: STAT5 phosphorylation by IL-2 in HT-2 cells (HTRF); assay type: cell-based; settings: IL-2 50 U/ml, pSTAT5 HTRF, read-out: Cell Based Assay (μM) HT-2/IL-2/pSTAT5
Protocol: HT-2 cells were starved […] in RPMI phenol red with 10% fetal bovine serum for 4 hours in CO2 incubator maintained at 37° c. Compounds were diluted in DMSO and added to 96 well plate containing a final density of 1,20,000 cells per well. Cells and compounds are incubated for 30 minutes in CO2 incubator maintained at 37° C. and final DMSO concentration in cell based assay was 0.2%. Human recombinant cytokine, IL-2 (50 U/ml) was added to the plate containing cells and compound and incubated for 20 minutes with gentle tapping/shaking at every 5 minutes once. Compound mediated effects on STAT5 phosphorylation was measured in the lysates prepared by using CISBIO pSTAT5 detection kit by HTRF method. Background signal obtained from cells which were not activated with cytokines, was subtracted from vehicle controls and compound treated wells.

T2 sequence (O60674 whole entry): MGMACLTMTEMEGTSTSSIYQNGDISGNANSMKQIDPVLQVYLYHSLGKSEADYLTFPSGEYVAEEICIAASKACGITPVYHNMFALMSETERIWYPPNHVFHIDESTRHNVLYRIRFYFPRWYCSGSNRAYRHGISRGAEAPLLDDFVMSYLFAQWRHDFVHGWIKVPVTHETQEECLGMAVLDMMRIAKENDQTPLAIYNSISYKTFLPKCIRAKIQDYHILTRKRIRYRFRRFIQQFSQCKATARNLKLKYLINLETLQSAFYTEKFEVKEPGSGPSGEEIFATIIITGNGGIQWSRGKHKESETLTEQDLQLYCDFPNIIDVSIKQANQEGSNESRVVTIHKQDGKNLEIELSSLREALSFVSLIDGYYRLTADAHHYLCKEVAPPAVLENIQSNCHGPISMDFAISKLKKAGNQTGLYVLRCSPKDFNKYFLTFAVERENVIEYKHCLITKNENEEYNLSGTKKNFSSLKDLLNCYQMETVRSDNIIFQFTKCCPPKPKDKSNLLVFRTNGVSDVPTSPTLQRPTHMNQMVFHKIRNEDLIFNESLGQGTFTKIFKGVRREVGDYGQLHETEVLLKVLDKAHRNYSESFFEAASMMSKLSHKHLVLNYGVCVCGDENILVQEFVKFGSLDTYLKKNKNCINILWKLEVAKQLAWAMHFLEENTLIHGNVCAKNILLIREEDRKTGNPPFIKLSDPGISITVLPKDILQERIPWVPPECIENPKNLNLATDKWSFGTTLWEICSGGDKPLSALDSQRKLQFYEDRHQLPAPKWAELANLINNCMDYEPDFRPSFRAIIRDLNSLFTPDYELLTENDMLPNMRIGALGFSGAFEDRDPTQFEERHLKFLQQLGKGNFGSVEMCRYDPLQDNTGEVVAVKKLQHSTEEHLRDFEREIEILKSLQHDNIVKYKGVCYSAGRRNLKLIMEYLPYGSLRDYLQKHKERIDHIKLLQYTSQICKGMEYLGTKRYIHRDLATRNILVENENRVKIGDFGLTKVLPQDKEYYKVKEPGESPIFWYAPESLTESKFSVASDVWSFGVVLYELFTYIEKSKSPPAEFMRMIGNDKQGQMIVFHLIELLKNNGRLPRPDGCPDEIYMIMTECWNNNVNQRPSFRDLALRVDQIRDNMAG
T4 sequence (P29597 whole entry): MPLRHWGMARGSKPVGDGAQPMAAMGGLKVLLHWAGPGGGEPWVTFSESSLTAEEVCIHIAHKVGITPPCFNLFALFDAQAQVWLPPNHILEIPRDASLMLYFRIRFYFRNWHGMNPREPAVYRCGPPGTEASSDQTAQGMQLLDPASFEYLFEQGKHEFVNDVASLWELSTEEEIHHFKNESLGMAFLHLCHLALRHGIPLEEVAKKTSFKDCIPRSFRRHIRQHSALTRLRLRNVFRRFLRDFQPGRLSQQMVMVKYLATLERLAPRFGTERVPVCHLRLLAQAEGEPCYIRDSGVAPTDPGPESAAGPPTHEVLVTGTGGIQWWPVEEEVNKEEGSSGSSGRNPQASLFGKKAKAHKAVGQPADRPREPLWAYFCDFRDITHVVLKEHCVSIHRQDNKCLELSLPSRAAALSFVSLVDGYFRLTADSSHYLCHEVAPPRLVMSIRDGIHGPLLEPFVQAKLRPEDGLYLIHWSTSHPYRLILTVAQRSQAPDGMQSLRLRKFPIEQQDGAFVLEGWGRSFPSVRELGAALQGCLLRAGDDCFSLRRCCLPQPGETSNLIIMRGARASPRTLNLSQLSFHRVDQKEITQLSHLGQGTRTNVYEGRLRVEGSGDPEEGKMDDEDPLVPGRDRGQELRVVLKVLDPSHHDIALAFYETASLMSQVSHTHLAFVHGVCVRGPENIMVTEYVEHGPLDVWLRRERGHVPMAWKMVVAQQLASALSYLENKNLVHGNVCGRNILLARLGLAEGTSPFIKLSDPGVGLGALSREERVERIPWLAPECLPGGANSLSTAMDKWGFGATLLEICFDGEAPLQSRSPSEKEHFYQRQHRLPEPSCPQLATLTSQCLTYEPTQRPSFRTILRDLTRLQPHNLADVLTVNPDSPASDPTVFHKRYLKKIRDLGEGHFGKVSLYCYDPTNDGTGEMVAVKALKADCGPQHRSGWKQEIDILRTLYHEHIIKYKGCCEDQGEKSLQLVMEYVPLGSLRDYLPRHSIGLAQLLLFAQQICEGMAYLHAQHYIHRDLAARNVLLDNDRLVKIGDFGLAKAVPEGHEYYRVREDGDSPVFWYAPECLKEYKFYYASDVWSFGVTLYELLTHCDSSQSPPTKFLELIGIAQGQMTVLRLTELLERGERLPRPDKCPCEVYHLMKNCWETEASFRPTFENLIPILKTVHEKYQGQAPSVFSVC
T1 sequence (P23458 whole entry): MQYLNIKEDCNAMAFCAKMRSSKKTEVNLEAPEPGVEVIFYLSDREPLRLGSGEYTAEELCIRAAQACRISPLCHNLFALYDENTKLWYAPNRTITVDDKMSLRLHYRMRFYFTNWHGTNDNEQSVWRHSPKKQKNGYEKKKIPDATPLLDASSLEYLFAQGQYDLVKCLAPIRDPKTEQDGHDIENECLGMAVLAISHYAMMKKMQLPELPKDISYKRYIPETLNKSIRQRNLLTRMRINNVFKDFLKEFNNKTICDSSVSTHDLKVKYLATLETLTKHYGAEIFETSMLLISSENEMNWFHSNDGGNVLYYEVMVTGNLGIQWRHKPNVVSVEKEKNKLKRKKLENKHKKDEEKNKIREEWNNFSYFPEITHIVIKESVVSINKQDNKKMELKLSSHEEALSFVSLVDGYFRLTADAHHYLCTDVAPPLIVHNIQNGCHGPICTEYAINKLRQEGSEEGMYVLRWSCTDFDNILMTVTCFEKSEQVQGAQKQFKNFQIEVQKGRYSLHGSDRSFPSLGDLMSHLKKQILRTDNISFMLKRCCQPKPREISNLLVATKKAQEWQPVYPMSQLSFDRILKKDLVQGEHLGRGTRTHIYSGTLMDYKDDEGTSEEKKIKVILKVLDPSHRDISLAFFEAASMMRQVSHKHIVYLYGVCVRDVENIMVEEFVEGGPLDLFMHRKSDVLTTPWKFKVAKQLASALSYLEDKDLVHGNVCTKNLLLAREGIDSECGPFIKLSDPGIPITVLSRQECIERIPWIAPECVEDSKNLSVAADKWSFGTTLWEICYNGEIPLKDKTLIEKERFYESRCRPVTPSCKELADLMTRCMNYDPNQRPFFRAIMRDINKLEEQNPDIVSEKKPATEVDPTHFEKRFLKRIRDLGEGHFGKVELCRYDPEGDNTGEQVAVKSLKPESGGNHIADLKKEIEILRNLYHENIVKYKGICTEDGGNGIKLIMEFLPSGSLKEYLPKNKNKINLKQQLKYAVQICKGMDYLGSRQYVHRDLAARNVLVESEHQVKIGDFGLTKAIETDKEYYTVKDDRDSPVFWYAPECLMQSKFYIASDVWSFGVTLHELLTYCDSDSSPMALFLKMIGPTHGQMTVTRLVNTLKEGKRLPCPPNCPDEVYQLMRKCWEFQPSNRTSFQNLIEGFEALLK

Structure (SMILES)	IC50 (Recombinant JAK1)	IC50 (Recombinant JAK2)	IC50 (Recombinant JAK3)	IC50 (Recombinant TYK2)	IC50 ([1]; Homo sapiens, TF-1, TF-1 cells)	IC50 [2]	IC50 ([3]; HT2, HT-2 cells)	IC50 ([1]; TF-1 cells)	IC50 ([3]; HT-2 cells)
CS(=O)(=O)NCCC(c1ccc(-n2cc(-c3ccnc4[nH]cnc34)cn2)nc1)C(F)(F)F (stereo not shown) [Example 1143, N-(3-(6-(4-(3H-imidazo[4,5-b]pyridin-7-yl)-1H-pyrazol-1-yl)pyridin-3-yl)-4,4,4-trifluorobutyl)methanesulfonamide]	< 0.1 µM	< 0.1 µM	< 0.1 µM	> 1 µM	0.47 µM	< 1 µM	0.67 µM		
O[C@](c1ccc(-n2cc(-c3ccnc4[nH]cnc34)cn2)nc1)(C1CCN(C2COC2)C1)C(F)(F)F (stereo partly drawn) [Example 1243, (S)-1-(6-(4-(3H-imidazo[4,5-b]pyridin-7-yl)-1H-pyrazol-1-yl)pyridin-3-yl)-2,2,2-trifluoro-1-(1-(oxetan-3-yl)pyrrolidin-3-yl)ethanol]	< 0.1 µM	< 0.1 µM	< 0.1 µM	> 1 µM	> 1 µM	> 1 µM	> 1 µM		
FC(F)(F)[C@H](c1ccc(-n2cc(-c3ccnc4[nH]cnc34)cn2)nc1)C1COC1 (single isomer, unassigned) [Example 1185]	< 0.1 µM	> 0.1 µM	> 0.1 µM	> 1 µM	2 µM	> 1 µM	> 3 µM		
CC(C)NC(=O)CCC(O)(c1ccc(-n2cc(-c3ccnc4[nH]cnc34)cn2)nc1)C(F)(F)F (stereo not shown) [Example 1238, 4-(6-(4-(3H-imidazo[4,5-b]pyridin-7-yl)-1H-pyrazol-1-yl)pyridin-3-yl)-5,5,5-trifluoro-4-hydroxy-N-isopropylpentanamide]	0.003 µM	> 0.03 µM		> 0.1 µM	> 0.1 µM	1 µM	> 0.1 µM		
CNC(=O)CC(c1ccc(-n2cc(-c3ccnc4[nH]cnc34)cn2)nc1)C(F)(F)F (stereo not shown) [Example 1145, 3-(6-(4-(3H-imidazo[4,5-b]pyridin-7-yl)-1H-pyrazol-1-yl)pyridin-3-yl)-4,4,4-trifluoro-N-methylbutanamide]	< 0.1 µM	> 0.1 µM	< 0.1 µM	> 1 µM	> 0.5 µM	> 1 µM	> 1 µM		
CC(C)C(O)(c1ccc(-n2cc(-c3ccnc4[nH]cnc34)cn2)nc1)C(F)(F)F (stereo not shown) [Example 1129, 2-(6-(4-(3H-imidazo[4,5-b]pyridin-7-yl)-1H-pyrazol-1-yl)pyridin-3-yl)-1,1,1-trifluoro-3-methylbutan-2-ol]	< 0.1 µM	> 0.1 µM	< 0.1 µM	> 1 µM	> 0.5 µM	> 10 µM	> 1 µM		
CC(C)NCCOC(c1ccc(-n2cc(-c3ccnc4[nH]cnc34)cn2)nc1)C(F)(F)F (stereo not shown) [Example 1241, N-(2-(1-(6-(4-(3H-imidazo[4,5-b]pyridin-7-yl)-1H-pyrazol-1-yl)pyridin-3-yl)-2,2,2-trifluoroethoxy)ethyl)propan-2-amine, TFA salt]	< 0.1 µM	> 0.1 µM	< 0.1 µM	> 1 µM	> 0.5 µM	> 1 µM	> 0.75 µM		
CCC(c1ccc(-n2cc(-c3ccnc4[nH]cnc34)cn2)nc1)C(F)(F)F (stereo not shown) [Example 1122, 7-(1-(5-(1,1,1-trifluorobutan-2-yl)pyridin-2-yl)-1H-pyrazol-4-yl)-3H-imidazo[4,5-b]pyridine]	> 0.1 µM	> 0.5 µM	> 0.5 µM	> 1 µM	> 1 µM	> 1 µM	> 1 µM		
OCCC(c1ccc(-n2cc(-c3ccnc4[nH]cnc34)cn2)nc1)C(F)(F)F (stereo not shown) [Example 1154, 3-(6-(4-(3H-imidazo[4,5-b]pyridin-7-yl)-1H-pyrazol-1-yl)pyridin-3-yl)-4,4,4-trifluorobutan-1-ol]	< 0.1 µM	< 0.1 µM	< 0.1 µM	> 0.5 µM	> 0.5 µM	> 1 µM	> 0.5 µM		
CS(=O)(=O)CCC(c1ccc(-n2cc(-c3ccnc4[nH]cnc34)cn2)nc1)C(F)(F)F (stereo not shown) [Example 1174, 7-(1-(5-(1,1,1-trifluoro-4-(methylsulfonyl)butan-2-yl)pyridin-2-yl)-1H-pyrazol-4-yl)-3H-imidazo[4,5-b]pyridine]	0.018 µM	0.108 µM	0.055 µM	> 1 µM	0.3 µM	> 10 µM	1.3 µM		
FC(F)(F)[C@@H](c1ccc(-n2cc(-c3ccnc4[nH]cnc34)cn2)nc1)C1COC1 (single isomer, unassigned) [Example 1184]	< 0.1 µM	> 0.1 µM	< 0.1 µM	> 1 µM	> 0.8 µM	> 1 µM	1.5 µM		
FC(F)(F)C(c1ccc(-n2cc(-c3ccnc4[nH]cnc34)cn2)nc1)C1COC1 (stereo not shown) [Example 1136, 7-(1-(5-(2,2,2-trifluoro-1-(oxetan-3-yl)ethyl)pyridin-2-yl)-1H-pyrazol-4-yl)-3H-imidazo[4,5-b]pyridine]	< 0.1 µM	< 0.1 µM	< 0.1 µM	> 1 µM	0.7 µM	> 1 µM	0.8 µM		
FC(F)(F)C(CCNC1CC1)c1ccc(-n2cc(-c3ccnc4[nH]cnc34)cn2)nc1 (stereo not shown) [Example 1153, N-(3-(6-(4-(3H-imidazo[4,5-b]pyridin-7-yl)-1H-pyrazol-1-yl)pyridin-3-yl)-4,4,4-trifluorobutyl)cyclopropanamine]	< 0.1 µM	< 0.1 µM	< 0.1 µM	> 0.5 µM	0.36 µM	> 1 µM	2.1 µM		
CNCCC(c1ccc(-n2cc(-c3ccnc4[nH]cnc34)cn2)nc1)C(F)(F)F (stereo not shown) [Example 1198, 3-(6-(4-(3H-imidazo[4,5-b]pyridin-7-yl)-1H-pyrazol-1-yl)pyridin-3-yl)-4,4,4-trifluoro-N-methylbutan-1-amine]	< 0.1 µM	< 0.1 µM	< 0.1 µM	> 0.5 µM		1 µM		0.1 µM	0.6 µM
